Test results: patent US5792656A (priority 1995, dated 1998)
Several values for one entry are separate records, joined by “and”; a condition that tells them apart may be missing. Identical values can stand only once. Entries after “also recorded” stand apart in the source; their conditions may differ. Like-named read-outs stand apart in the source and are kept apart here.

Assays:
[1] = system: hexokinase (low Km Hexokinases I, II, and III); settings: cited from earlier work
[2] = biological target: T1, GLUT-1 low Km glucose transporter of untransfected parental AtT-20ins cells (Mus musculus, UniProt P17809); experiment: Glucose transport (3-O-methyl glucose uptake) in untransfected parental AtT-20ins cells; type: cell-based; settings: untransfected parental AtT-20ins line
T1 sequence (P17809 1-492): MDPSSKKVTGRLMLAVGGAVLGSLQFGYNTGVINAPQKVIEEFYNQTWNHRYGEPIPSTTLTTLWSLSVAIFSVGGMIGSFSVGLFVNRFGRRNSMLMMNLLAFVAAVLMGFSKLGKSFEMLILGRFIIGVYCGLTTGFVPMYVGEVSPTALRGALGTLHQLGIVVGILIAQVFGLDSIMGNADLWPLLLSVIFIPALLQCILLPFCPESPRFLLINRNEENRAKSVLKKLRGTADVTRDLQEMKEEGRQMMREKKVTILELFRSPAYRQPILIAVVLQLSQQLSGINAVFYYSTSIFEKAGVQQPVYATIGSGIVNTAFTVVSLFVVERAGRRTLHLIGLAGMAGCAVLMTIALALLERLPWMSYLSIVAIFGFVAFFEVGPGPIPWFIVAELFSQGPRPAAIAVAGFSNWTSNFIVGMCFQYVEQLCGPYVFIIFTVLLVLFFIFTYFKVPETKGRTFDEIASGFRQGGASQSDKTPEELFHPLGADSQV

[3] = system: parental AtT-20ins cells; experiment: Insulin secretion, static 3 hour incubation, parental cells; type: cell-based; settings: 0-20 mM glucose, 3 hours static incubation
Protocol: (§1) Parental or GLUT-2 transfected lines CGT-5 and CGT-6 were removed from growth plates by light trypsinization and replanted in 6 well dishes (Costar) at a density of 5×10^5 cells per well. The cells were then grown for three days in culture media containing 1 mM (see above). […] Cells were incubated with secretagogues for 3 hours, after which media was collected for insulin radioimmunoassay.

[4] = biological target: T2, rat islet GLUT-2 glucose transporter expressed in AtT-20ins cells (lines CGT-5, CGT-6) (Rattus norvegicus, UniProt P12336)
T2 sequence (P12336 1-522): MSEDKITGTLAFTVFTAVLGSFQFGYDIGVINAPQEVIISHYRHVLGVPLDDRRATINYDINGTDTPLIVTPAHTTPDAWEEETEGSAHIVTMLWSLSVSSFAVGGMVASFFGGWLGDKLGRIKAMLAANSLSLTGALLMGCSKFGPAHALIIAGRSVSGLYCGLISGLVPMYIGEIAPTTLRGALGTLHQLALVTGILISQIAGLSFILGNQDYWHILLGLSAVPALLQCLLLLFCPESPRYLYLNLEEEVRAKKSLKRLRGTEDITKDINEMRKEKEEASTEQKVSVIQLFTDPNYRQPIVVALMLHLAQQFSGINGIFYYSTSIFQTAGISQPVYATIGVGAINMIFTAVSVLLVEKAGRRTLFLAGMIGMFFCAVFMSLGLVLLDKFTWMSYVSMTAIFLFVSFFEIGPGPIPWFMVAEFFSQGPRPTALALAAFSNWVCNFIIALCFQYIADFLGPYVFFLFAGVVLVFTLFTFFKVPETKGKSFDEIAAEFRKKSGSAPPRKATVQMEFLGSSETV

[5] = biological target: T3, high Km glucose transport activity (GLUT-2) of isolated, dispersed islets of Langerhans (Rattus norvegicus, UniProt P12336); settings: cited from earlier work
T3 construct: host or cells: isolated, dispersed islets of Langerhans (Johnson et al., 1990a)
T3 sequence (P12336 1-522): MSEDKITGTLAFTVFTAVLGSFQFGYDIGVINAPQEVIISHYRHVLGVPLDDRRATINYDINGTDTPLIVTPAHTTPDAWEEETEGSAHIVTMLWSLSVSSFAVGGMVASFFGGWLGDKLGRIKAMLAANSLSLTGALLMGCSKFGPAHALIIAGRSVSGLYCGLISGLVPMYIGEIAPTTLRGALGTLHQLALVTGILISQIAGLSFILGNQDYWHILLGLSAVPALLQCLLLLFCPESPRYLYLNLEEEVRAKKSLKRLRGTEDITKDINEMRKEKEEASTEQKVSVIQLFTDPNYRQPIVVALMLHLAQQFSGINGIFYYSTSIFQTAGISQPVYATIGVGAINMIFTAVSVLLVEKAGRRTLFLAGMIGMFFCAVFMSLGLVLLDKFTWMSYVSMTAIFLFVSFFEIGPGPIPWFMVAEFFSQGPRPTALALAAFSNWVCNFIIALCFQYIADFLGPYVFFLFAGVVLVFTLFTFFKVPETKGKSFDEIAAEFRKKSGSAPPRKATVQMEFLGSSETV

[6] = biological target: T4, glucokinase (Hexokinase IV) (Homo sapiens, UniProt P35557); settings: read-out: Km for glucose; cited from earlier work
T4 sequence (P35557 1-465): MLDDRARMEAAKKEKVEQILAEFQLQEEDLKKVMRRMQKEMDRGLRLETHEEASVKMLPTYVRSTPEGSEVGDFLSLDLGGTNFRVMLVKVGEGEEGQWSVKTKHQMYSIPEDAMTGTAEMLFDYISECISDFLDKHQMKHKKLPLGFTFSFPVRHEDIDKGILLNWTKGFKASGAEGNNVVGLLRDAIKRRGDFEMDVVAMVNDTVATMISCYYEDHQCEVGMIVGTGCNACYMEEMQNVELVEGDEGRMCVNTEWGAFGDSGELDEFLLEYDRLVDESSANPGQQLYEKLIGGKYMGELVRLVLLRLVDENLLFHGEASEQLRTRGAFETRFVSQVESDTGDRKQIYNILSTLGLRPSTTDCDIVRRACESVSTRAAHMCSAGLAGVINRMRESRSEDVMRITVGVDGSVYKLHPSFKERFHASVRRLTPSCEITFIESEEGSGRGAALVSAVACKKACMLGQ

[7] = biological target: T5, glucokinase, islet isoform (Rattus norvegicus, UniProt P17712); settings: read-out: Km for glucose; cited from earlier work
T5 sequence (P17712 1-465): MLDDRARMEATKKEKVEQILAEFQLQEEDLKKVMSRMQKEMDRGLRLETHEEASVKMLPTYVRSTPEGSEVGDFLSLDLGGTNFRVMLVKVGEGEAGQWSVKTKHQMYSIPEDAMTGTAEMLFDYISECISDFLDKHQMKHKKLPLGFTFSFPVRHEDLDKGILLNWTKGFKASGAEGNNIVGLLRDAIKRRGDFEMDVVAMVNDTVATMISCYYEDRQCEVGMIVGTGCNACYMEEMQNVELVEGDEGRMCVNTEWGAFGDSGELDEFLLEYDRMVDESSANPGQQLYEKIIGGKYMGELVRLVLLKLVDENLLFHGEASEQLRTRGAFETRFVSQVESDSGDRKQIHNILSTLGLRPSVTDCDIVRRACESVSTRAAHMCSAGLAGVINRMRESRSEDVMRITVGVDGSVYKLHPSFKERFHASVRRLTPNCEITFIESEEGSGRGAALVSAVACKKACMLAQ

[8] = biological target: T6, glucokinase, liver isoform (Rattus norvegicus, UniProt P17712); settings: read-out: Km for glucose; cited from earlier work
T6 sequence (P17712 1-465 isoform P17712-3): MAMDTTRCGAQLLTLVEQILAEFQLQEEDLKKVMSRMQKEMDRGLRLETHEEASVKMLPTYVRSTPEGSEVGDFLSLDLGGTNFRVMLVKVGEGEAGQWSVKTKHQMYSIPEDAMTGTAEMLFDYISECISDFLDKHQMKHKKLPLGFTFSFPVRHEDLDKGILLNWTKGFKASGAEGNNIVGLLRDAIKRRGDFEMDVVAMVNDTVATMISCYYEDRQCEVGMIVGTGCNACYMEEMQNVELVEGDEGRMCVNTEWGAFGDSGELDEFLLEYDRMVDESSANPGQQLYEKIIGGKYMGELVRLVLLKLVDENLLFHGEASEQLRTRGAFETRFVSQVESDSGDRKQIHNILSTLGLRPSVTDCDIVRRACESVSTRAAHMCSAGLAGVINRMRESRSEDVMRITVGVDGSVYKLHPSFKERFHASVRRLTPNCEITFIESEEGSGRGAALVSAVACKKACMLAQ

[9] = system: GLUT-2 transfected AtT-20ins cells (line CGT-6); experiment: cells; settings: Mus musculus, 3 h, read-out: maximal stimulation of insulin release relative to 0 mM glucose
Protocol: as §1

[10] = system: CGT-6 (GLUT-2 expressing AtT-20ins) cells; experiment: cells
Protocol: Insulin secretion from CGT-6 (GLUT-2,expressing AtT-20ins) cells was evaluated using a column perfusion technique (Knudsen et al., 1983). Cells were grown in liquid culture on microcarrier beads (InvitroGen). Approximately 50×10^6 cells were harvested by gentle centrifugation (500 rpm in a Sorvall RT6000B desk top centrifuge), resuspended in 4ml Krebs-Ringer salt (KRS) solution, pH 7.4, and loaded onto a Pharmacia P10/10 column. A cell count was obtained immediately before loading the column in the following manner. An aliquot of cells was taken, the beads digested with 1.2 U/ml Dispase (Boehringer Mannheim), the cell clumps were dispersed by extrusion through a 25 gauge needle and the cells were counted directly.
After the beads settled in the column, the top plunger of the column was gently inserted and the whole apparatus was submerged in a 37° C. water bath. The cells were then perifused as described below.

[11] = system: RIN 1046-38 cells; settings: RIN 1046-38 cells (Clark, et al., 1990); cited from earlier work
[12] = substrate: OC[C@H]1OC(O)[C@H](O)[C@@H](O)[C@@H]1O; experiment: cells, lysate or membranes; settings: 3-O-methyl glucose uptake, 37.0 °C
[13] = lines CGT-5, CGT-6 stated together, 3-O-methyl glucose uptake

Q: For `O=P(O)(O)OC[C@H]1OC(O)[C@H](O)[C@@H](O)[C@@H]1O` (some centres unmarked) [glucose-6-phosphate, reference compound], which “inhibition of hexokinase by glucose-6-phosphate” value ([1]; 10 mM glucose-6-phosphate) is on record?
A: potently inhibits; also recorded: potent inhibitor

Q: Which Vmax [2] does the source give for `OC[C@H]1OC(O)[C@H](O)[C@@H](O)[C@@H]1O` (some centres unmarked) [glucose] here?
A: 0.5 mmoles/min/liter cell space

Q: What about the “effect of glucose on insulin release” value [3] of the same molecule?
A: no significant effect

Q: What about the Vmax ([4]; line CGT-5, Lineweaver-Burke analysis) of the same molecule?
A: 25 mmoles/min/liter cell space

Q: What about the Vmax ([4]; line CGT-6, Lineweaver-Burke analysis) of the same molecule?
A: 17 mmoles/min/liter cell space

Q: What about the Vmax [4, 13] of the same molecule?
A: 19 mmoles/min/liter cell space

Q: What about the “estimated Km for glucose” value [4, 13] of the same molecule?
A: 18 mM

Q: And the Vmax ([5]; dispersed islets (Johnson, et al., 1990a))?
A: 24 mmoles/min/liter cell space

Q: What about the Km ([5]; read-out: Km for glucose, dispersed islets (Johnson, et al., 1990a)) of the same molecule?
A: 18 mM

Q: What about the Km ([1]; read-out: Km for glucose, Hexokinases I, II, and III) of the same molecule?
A: ~0.05 mM

Q: What about the Km [6] of the same molecule?
A: ~8 mM and 8 to 10 mM

Q: And the Km [7]?
A: 8 to 10 mM and ~10 mM

Q: What about the Km [8] of the same molecule?
A: 8 to 10 mM

Q: What about the maximal fold induction [9] of the same molecule?
A: ~2.5

Q: What about the fold induction at 5000 µM ([10]; 5 min, read-out: insulin secretion second plateau above pre-glucose level) of the same molecule?
A: 3

Q: What about the fold induction at 5000 µM ([10]; read-out: increase in insulin release, first phase, over baseline without glucose) of the same molecule?
A: 10

Q: And the “glucose concentration at which stimulation of insulin release is maximal” value [11]?
A: 0.5 mM

B1: GLUT-1 low Km glucose transporter of untransfected parental AtT-20ins cells (Mus musculus) (protein)
chain: MDPSSKKVTGRLMLAVGGAVLGSLQFGYNTGVINAPQKVIEEFYNQTWNHRYGEPIPSTTLTTLWSLSVAIFSVGGMIGSFSVGLFVNRFGRRNSMLMMNLLAFVAAVLMGFSKLGKSFEMLILGRFIIGVYCGLTTGFVPMYVGEVSPTALRGALGTLHQLGIVVGILIAQVFGLDSIMGNADLWPLLLSVIFIPALLQCILLPFCPESPRFLLINRNEENRAKSVLKKLRGTADVTRDLQEMKEEGRQMMREKKVTILELFRSPAYRQPILIAVVLQLSQQLSGINAVFYYSTSIFEKAGVQQPVYATIGSGIVNTAFTVVSLFVVERAGRRTLHLIGLAGMAGCAVLMTIALALLERLPWMSYLSIVAIFGFVAFFEVGPGPIPWFIVAELFSQGPRPAAIAVAGFSNWTSNFIVGMCFQYVEQLCGPYVFIIFTVLLVLFFIFTYFKVPETKGRTFDEIASGFRQGGASQSDKTPEELFHPLGADSQV
Q: With B1 as the molecule, how does the Km ([12]; other: untransfected parental AtT-20ins line) read?
A: 2 mM

B2: rat islet GLUT-2 glucose transporter expressed in AtT-20ins cells (lines CGT-5, CGT-6) (Rattus norvegicus) (protein)
chain: MSEDKITGTLAFTVFTAVLGSFQFGYDIGVINAPQEVIISHYRHVLGVPLDDRRATINYDINGTDTPLIVTPAHTTPDAWEEETEGSAHIVTMLWSLSVSSFAVGGMVASFFGGWLGDKLGRIKAMLAANSLSLTGALLMGCSKFGPAHALIIAGRSVSGLYCGLISGLVPMYIGEIAPTTLRGALGTLHQLALVTGILISQIAGLSFILGNQDYWHILLGLSAVPALLQCLLLLFCPESPRYLYLNLEEEVRAKKSLKRLRGTEDITKDINEMRKEKEEASTEQKVSVIQLFTDPNYRQPIVVALMLHLAQQFSGINGIFYYSTSIFQTAGISQPVYATIGVGAINMIFTAVSVLLVEKAGRRTLFLAGMIGMFFCAVFMSLGLVLLDKFTWMSYVSMTAIFLFVSFFEIGPGPIPWFMVAEFFSQGPRPTALALAAFSNWVCNFIIALCFQYIADFLGPYVFFLFAGVVLVFTLFTFFKVPETKGKSFDEIAAEFRKKSGSAPPRKATVQMEFLGSSETV
Q: Which Km ([12]; other: line CGT-5, Lineweaver-Burke analysis) does the source give for B2 here?
A: 16 mM

Q: And the Km ([12]; other: line CGT-6, Lineweaver-Burke analysis)?
A: 17 mM
